# In US20260234166A1, “FUSED RING COMPOUND AND USE THEREOF” (HITGEN INC., priority 2023, published 2026):
# Read-outs that look alike come from different tables or passages of the source.
# Target: CRBN/DDB1 protein (Homo sapiens, UniProt Q96SW2)
# Assay: Detection of inhibition of CRBN/DDB1 activity by compounds (FRET)
# Assay type: binding
# Experimental: Test Example 1 Detection of Inhibition of CRBN/DDB1 Activity by Compounds (FRET)
# Microplate reader (BMG PHERAstar FSX), ECHO (LABCYTE Echo 665), microplate thermostatic oscillator (Hangzhou Ruicheng Instrument Co., Ltd.), disodium hydrogen phosphate (Sigma), sodium dihydrogen phosphate (Sigma), bovine serum albumin (Sigma), Anti-6His-Tb crypate Gold (CISBIO), CRBN/DDB1 protein (HitGen) and 384-well plate (Grenier Bio-one).
# The dry powder of the compound was dissolved in DMSO, and the compound was serially diluted using ECHO, and added to a 384-well reaction plate, so that the final concentration of DMSO in the whole reaction system (10.0 μL) was 1.0%, and the same amount of DMSO was added as a control.
# 20 mM disodium hydrogen phosphate, 20 mM sodium dihydrogen phosphate, 0.08% bovine serum albumin and buffer with pH of 7.0 were used to dilute the CRBN/DDB1 protein to twice the required final concentration (5.0 nM), and 5.0 μL of the diluted CRBN/DDB1 protein was added into the 384-well reaction plate added with compounds, centrifuged at 1000 rpm for 1 min, then placed on a microplate thermostatic oscillator, and pre-incubated at 25° C. and 250 rpm for 15 min. 20 mM disodium hydrogen phosphate, 20 mM sodium dihydrogen phosphate, 0.08% bovine serum albumin and buffer with a pH of 7.0 were used to dilute Anti-6His-Tb crypate Gold and FITC-labeled thalidomide analogues to twice the required final concentration, and the final concentration of Anti-6His-Tb crypate Gold was 0.2 nM, the final concentration of FITC-labeled thalidomide analogues was 50.0 nM, and a mixed solution of Anti-6His-Tb crypate Gold/FITC-labeled thalidomide analogues was obtained. […] After the reaction was completed, the fluorescence signal value (Ex-337 nm Em=520/490 nm) in the 384-well reaction plate was read by the microplate reader. […]
# The percentage of residual activity of each concentration was calculated as follows: […]
# Then, the dose-effect curve was fitted using GraphPad Prism 6.0 and the IC50 value was calculated accordingly.
# Sequence of CRBN/DDB1 protein (Q96SW2 whole entry, species assumed): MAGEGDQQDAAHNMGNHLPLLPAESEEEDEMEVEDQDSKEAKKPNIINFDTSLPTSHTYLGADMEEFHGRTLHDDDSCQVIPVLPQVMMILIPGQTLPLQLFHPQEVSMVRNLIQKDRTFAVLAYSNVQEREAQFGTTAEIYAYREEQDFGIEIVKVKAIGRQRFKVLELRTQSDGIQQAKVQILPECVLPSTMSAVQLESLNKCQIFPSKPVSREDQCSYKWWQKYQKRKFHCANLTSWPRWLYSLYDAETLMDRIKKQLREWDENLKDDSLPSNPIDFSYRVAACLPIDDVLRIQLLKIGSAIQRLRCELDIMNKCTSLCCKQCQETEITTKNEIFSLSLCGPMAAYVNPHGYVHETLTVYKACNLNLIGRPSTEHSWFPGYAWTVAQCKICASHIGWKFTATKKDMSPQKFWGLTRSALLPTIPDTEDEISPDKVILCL
# Sequence of CRBN/DDB1 protein (Q16531 whole entry partner, species assumed): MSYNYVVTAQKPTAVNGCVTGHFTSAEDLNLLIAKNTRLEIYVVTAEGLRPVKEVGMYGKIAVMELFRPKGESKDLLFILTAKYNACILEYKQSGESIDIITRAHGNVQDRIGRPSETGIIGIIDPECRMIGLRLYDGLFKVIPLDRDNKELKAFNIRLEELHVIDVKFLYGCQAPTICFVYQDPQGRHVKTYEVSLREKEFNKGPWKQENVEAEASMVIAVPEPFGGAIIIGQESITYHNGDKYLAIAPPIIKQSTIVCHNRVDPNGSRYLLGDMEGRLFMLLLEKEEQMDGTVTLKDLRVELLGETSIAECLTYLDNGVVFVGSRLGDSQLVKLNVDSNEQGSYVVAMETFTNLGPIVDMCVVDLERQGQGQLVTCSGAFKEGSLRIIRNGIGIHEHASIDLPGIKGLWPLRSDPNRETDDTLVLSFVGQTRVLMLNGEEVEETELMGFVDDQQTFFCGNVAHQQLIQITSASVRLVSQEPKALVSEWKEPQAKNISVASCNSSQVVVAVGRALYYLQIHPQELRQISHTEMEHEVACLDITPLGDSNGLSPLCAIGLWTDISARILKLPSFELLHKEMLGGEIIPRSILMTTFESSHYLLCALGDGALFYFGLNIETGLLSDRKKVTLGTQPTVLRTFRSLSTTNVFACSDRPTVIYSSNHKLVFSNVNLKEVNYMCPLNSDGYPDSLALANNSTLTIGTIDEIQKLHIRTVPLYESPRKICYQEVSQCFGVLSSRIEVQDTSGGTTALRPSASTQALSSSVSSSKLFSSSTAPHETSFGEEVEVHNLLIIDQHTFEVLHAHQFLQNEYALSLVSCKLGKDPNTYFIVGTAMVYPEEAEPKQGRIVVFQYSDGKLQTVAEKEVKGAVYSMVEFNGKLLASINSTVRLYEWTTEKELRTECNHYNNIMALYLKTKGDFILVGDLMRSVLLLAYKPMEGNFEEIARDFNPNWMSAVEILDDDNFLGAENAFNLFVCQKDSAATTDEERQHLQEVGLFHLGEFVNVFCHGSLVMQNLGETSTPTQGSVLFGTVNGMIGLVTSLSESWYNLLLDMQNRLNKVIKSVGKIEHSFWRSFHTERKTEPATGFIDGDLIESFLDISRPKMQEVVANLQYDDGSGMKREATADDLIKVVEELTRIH
"IC50 (FRET, 5.0 nM CRBN/DDB1, 0.2 nM Anti-6His-Tb, 50.0 nM FITC-labeled thalidomide analogue, 1.0% DMSO, 25° C., read-out: IC50, inhibition of CRBN/DDB1 protein) [nM]",SMILES,IC50 [nM]
–,O=C1CC2(CN(C(=O)c3c4n(c5ccccc35)CNC4=O)C2)C(=O)N1 [Compound B4],18
–,O=C1CC2(CN(C(=O)c3c4n(c5ccccc35)C=NC4=O)C2)C(=O)N1 [Compound B3],43
11,CN1Cn2c(c(C(=O)N3CC4(CC(=O)NC4=O)C3)c3ccccc32)C1=O [Compound B5],–
